Data from patent US9247746B2, “Fungicidal substituted 1-{2-cyclyloxy-2-[2-halo-4-(4-halogen-phenoxy)-phenyl]-ethyl}-1H-[1,2,4]triazole compounds” (BASF SE, priority 2011, dated 2016).

Tests used:
[1] = test system: Phakopsora pachyrhizi; test: Protective control of soy bean rust on soy beans (Phakpa P2), green house; format: in vivo; conditions: inoculated 2 days after spraying, untreated control 90
Method: The spray solutions were prepared in several steps:
The stock solution were prepared: a mixture of acetone and/or dimethylsulfoxide and the wetting agent/emulsifier Wettol, which is based on ethoxylated alkylphenoles, in a relation (volume) solvent-emulsifier of 99 to 1 was added to 25 mg of the compound to give a total of 5 ml. Water was then added to total volume of 100 ml. This stock solution was diluted with the described solvent-emulsifier-water mixture to the given concentration. G1. Preventative Control of Brown Rust on Wheat Caused by Puccinia recondita (Puccrt P1)
G4. Protective Control of Soy Bean Rust on Soy Beans Caused by Phakopsora pachyrhizi (Phakpa P2)
Leaves of pot-grown soy bean seedlings were sprayed to run-off with an aqueous suspension, containing the concentration of active ingredient or their mixture as described below. The plants were allowed to air-dry. The trial plants were cultivated for 2 days in a greenhouse chamber at 23-27° C. and a relative humidity between 60 and 80%. Then the plants were inoculated with spores of Phakopsora pachyrhizi. To ensure the success the artificial inoculation, the plants were transferred to a humid chamber with a relative humidity of about 95% and 20 to 24° C. for 24 h. […] The extent of fungal attack on the leaves was visually assessed as % diseased leaf area.

[2] = test system: Septoria tritici; test: Microtest: activity against leaf blotch on wheat (Septtr); format: cell-based
Method: The active compounds were formulated separately as a stock solution having a concentration of 10000 ppm in dimethyl sulfoxide. M2. Activity Against Leaf Blotch on Wheat Caused by Septoria tritici(Septtr) The stock solutions were mixed according to the ratio, pipetted onto a micro titer plate (MTP) and diluted with water to the stated concentrations. A spore suspension of Septoria tritici in an aqueous biomalt or yeast-bactopeptone-glycerine solution was then added. The plates were placed in a water vapor-saturated chamber at a temperature of 18° C. Using an absorption photometer, the MTPs were measured at 405 nm 7 days after the inoculation.

[3] = test system: Septoria tritici; test: Preventative control of leaf blotch on wheat (Septtr P7), green house; format: in vivo; conditions: inoculated 7 days after spraying, untreated control 90
Method: The spray solutions were prepared in several steps: The stock solution were prepared: a mixture of acetone and/or dimethylsulfoxide and the wetting agent/emulsifier Wettol, which is based on ethoxylated alkylphenoles, in a relation (volume) solvent-emulsifier of 99 to 1 was added to 25 mg of the compound to give a total of 5 ml. Water was then added to total volume of 100 ml. This stock solution was diluted with the described solvent-emulsifier-water mixture to the given concentration. G1. Preventative Control of Brown Rust on Wheat Caused by Puccinia recondita (Puccrt P1) G3. Preventative Control of Leaf Blotch on Wheat Caused by Septoria tritici (Septtr P7) Leaves of pot-grown wheat seedling were sprayed to run-off with an aqueous suspension of the active compound or their mixture, prepared as described. The plants were allowed to air-dry. Seven days later the plants were inoculated with an aqueous spore suspension of Septoria tritici. Then the trial plants were immediately transferred to a humid chamber at 18-22° C. and a relative humidity close to 100%. After 4 days the plants were transferred to a chamber with 18-22° C. and a relative humidity close to 70%. After 4 weeks the extent of fungal attack on the leaves was visually assessed as % diseased leaf area.

Row | SMILES | Disease (%) at 63 ppm Phakpa P2 [1] [%] | Growth (%) at 0.00012 ppm Septtr [2] [%] | Disease (%) at 16 ppm Septtr P7 [3] [%]
1 | CCC(Cn1cncn1)(OC)c1ccc(Oc2ccc(Cl)cc2)cc1Cl (stereo not shown) | 60 | – | –
2 | COC(C)(Cn1cncn1)c1ccc(Oc2ccc(Cl)cc2)cc1Cl (stereo not shown) | – | 63 | 80
3 | CC(Cn1cncn1)(OCc1ccccc1)c1ccc(Oc2ccc(Cl)cc2)cc1Cl (stereo not shown) [I-1, 1-[2-benzyloxy-2-[2-chloro-4-(4-chlorophenoxy)phenyl]propyl]-1,2,4-triazole] | – | 23 | –
